Laboratory results reported in patent US6481154B1, “Method of large-scale propagation of trees of genus Swietenia” (Sumitomo Forestry Co., Ltd., priority 2000, dated 2002).

Assays:
[1] = tested on: single shoots of Swietenia macrophylla; assay: Rooting conditions (3): modified MS, then modified B5, then modified MS, one month each; type: cell-based; conditions: for Rooting rate (%) For first one month / Rooting rate (%) For second one month / Rooting rate (%) For third one month / Withering rate (%) For first one month / Withering rate (%) For second one month / Withering rate (%) For third one month: rooting conditions (3)
Protocol: (§1) A large number of shoots obtained in (4) were cut to single shoots which were cultured in the following procedures:
(3) The single shoots were cultured on a modified MS medium containing 0 to 10.0 mg/l of IBA for one month, then on a modified B5 medium containing 0 to 10.0 mg/l of IBA for one month and further on a modified MS medium containing 0 to 10.0 mg/l of IBA for one month.
(§2) All the above (1)-(4) cultures were conducted under conditions wherein a temperature was 26±2° C., a humidity was 60 to 90% and a light intensity was 3,000 to 9,000 Lux. Further, all the modified media in the above (1)-(4) contained 2.8 g/l of gelright.

[2] = tested on: single shoots of Swietenia macrophylla; assay: Rooting condition (1): modified B5 medium for 3 months; type: cell-based
Protocol: as §1
(1) The single shoots were cultured on a modified B5 medium containing 0 to 10.0 mg/l of IBA for 3 months, while transplanting the shoots to a fresh medium of the same composition every month.
as §2

O=C(O)CCCc1c[nH]c2ccccc12 [IBA, 3-indole butyric acid]
effectiveness versus continuous culture on a single kind of medium ([1]; 2.5 mg/l of IBA, modified MS, modified B5, modified MS, one month each): more effective
effectiveness for rooting ([1]; 2.5 mg/l of IBA, procedure (3)): particularly effective
Rooting rate (%) For first one month ([1]; IBA 0.1 mg/l): 0.0%
Rooting rate (%) For second one month ([1]; IBA 0.1 mg/l): 0.0%
Rooting rate (%) For third one month ([1]; IBA 0.1 mg/l): 0.0%
Withering rate (%) For first one month ([1]; IBA 0.1 mg/l): 7.7%
Withering rate (%) For second one month ([1]; IBA 0.1 mg/l): 73.1%
Withering rate (%) For third one month ([1]; IBA 0.1 mg/l): 84.6%
Rooting rate (%) For first one month ([1]; IBA 1.0 mg/l): 0.0%
Rooting rate (%) For second one month ([1]; IBA 1.0 mg/l): 10.0%
Rooting rate (%) For third one month ([1]; IBA 1.0 mg/l): 40.0%
Withering rate (%) For first one month ([1]; IBA 1.0 mg/l): 0.0%
Withering rate (%) For second one month ([1]; IBA 1.0 mg/l): 30.0%
Withering rate (%) For third one month ([1]; IBA 1.0 mg/l): 50.0%
Rooting rate (%) For first one month ([1]; IBA 2.0 mg/l): 0.0%
Rooting rate (%) For second one month ([1]; IBA 2.0 mg/l): 10.0%
Rooting rate (%) For third one month ([1]; IBA 2.0 mg/l): 40.0%
Withering rate (%) For first one month ([1]; IBA 2.0 mg/l): 0.0%
Withering rate (%) For second one month ([1]; IBA 2.0 mg/l): 30.0%
Withering rate (%) For third one month ([1]; IBA 2.0 mg/l): 40.0%
Rooting rate (%) For first one month ([1]; IBA 2.5 mg/l): 0.0%
Rooting rate (%) For second one month ([1]; IBA 2.5 mg/l): 40.0%
Rooting rate (%) For third one month ([1]; IBA 2.5 mg/l): 70.0%
Withering rate (%) For first one month ([1]; IBA 2.5 mg/l): 0.0%
Withering rate (%) For second one month ([1]; IBA 2.5 mg/l): 0.0%
Withering rate (%) For third one month ([1]; IBA 2.5 mg/l): 20.0%
Rooting rate (%) For first one month ([1]; IBA 3.0 mg/l): 0.0%
Rooting rate (%) For second one month ([1]; IBA 3.0 mg/l): 10.0%
Rooting rate (%) For third one month ([1]; IBA 3.0 mg/l): 30.0%
Withering rate (%) For first one month ([1]; IBA 3.0 mg/l): 0.0%
Withering rate (%) For second one month ([1]; IBA 3.0 mg/l): 50.0%
Withering rate (%) For third one month ([1]; IBA 3.0 mg/l): 50.0%
Rooting rate (%) For first one month ([1]; IBA 4.0 mg/l): 0.0%
Rooting rate (%) For second one month ([1]; IBA 4.0 mg/l): 0.0%
Rooting rate (%) For third one month ([1]; IBA 4.0 mg/l): 0.0%
Withering rate (%) For first one month ([1]; IBA 4.0 mg/l): 20.0%
Withering rate (%) For second one month ([1]; IBA 4.0 mg/l): 60.0%
Withering rate (%) For third one month ([1]; IBA 4.0 mg/l): 80.0%
Rooting rate (%) For first one month ([1]; IBA 5.0 mg/l): 0.0%
Rooting rate (%) For second one month ([1]; IBA 5.0 mg/l): 0.0%
Rooting rate (%) For third one month ([1]; IBA 5.0 mg/l): 0.0%
Withering rate (%) For first one month ([1]; IBA 5.0 mg/l): 40.0%
Withering rate (%) For second one month ([1]; IBA 5.0 mg/l): 50.0%
Withering rate (%) For third one month ([1]; IBA 5.0 mg/l): 100.0%
Rooting rate (%) For first one month ([1]; IBA 10.0 mg/l): 0.0%
Rooting rate (%) For second one month ([1]; IBA 10.0 mg/l): 0.0%
Rooting rate (%) For third one month ([1]; IBA 10.0 mg/l): 0.0%
Withering rate (%) For first one month ([1]; IBA 10.0 mg/l): 50.0%
Withering rate (%) For second one month ([1]; IBA 10.0 mg/l): 100.0%
Withering rate (%) For third one month ([1]; IBA 10.0 mg/l): 100.0%
single shoots rooted ([1]; procedure (3), 3 months after the start of culturing, 2.5 mg/l of IBA): 70.0%
Rooting rate (%) For first one month ([2]; IBA 0.1 mg/l): 0.0%
Rooting rate (%) For second one month ([2]; IBA 0.1 mg/l): 0.0%
Rooting rate (%) For third one month ([2]; IBA 0.1 mg/l): 0.0%
Withering rate (%) For first one month ([2]; IBA 0.1 mg/l): 84.6%
Withering rate (%) For second one month ([2]; IBA 0.1 mg/l): 100.0%
Withering rate (%) For third one month ([2]; IBA 0.1 mg/l): 100.0%
Rooting rate (%) For first one month ([2]; IBA 1.0 mg/l): 0.0%
Rooting rate (%) For second one month ([2]; IBA 1.0 mg/l): 3.7%
Rooting rate (%) For third one month ([2]; IBA 1.0 mg/l): 3.7%
Withering rate (%) For first one month ([2]; IBA 1.0 mg/l): 14.8%
Withering rate (%) For second one month ([2]; IBA 1.0 mg/l): 55.6%
Withering rate (%) For third one month ([2]; IBA 1.0 mg/l): 96.3%
Rooting rate (%) For first one month ([2]; IBA 2.0 mg/l): 0.0%
Rooting rate (%) For second one month ([2]; IBA 2.0 mg/l): 6.7%
Rooting rate (%) For third one month ([2]; IBA 2.0 mg/l): 6.7%
Withering rate (%) For first one month ([2]; IBA 2.0 mg/l): 13.3%
Withering rate (%) For second one month ([2]; IBA 2.0 mg/l): 40.0%
Withering rate (%) For third one month ([2]; IBA 2.0 mg/l): 73.3%
Rooting rate (%) For first one month ([2]; IBA 2.5 mg/l): 0.0%
Rooting rate (%) For second one month ([2]; IBA 2.5 mg/l): 18.5%
Rooting rate (%) For third one month ([2]; IBA 2.5 mg/l): 18.5%
Withering rate (%) For first one month ([2]; IBA 2.5 mg/l): 11.1%
Withering rate (%) For second one month ([2]; IBA 2.5 mg/l): 40.7%
Withering rate (%) For third one month ([2]; IBA 2.5 mg/l): 66.7%
Rooting rate (%) For first one month ([2]; IBA 3.0 mg/l): 0.0%
Rooting rate (%) For second one month ([2]; IBA 3.0 mg/l): 0.0%
Rooting rate (%) For third one month ([2]; IBA 3.0 mg/l): 0.0%
Withering rate (%) For first one month ([2]; IBA 3.0 mg/l): 26.9%
Withering rate (%) For second one month ([2]; IBA 3.0 mg/l): 57.7%
Withering rate (%) For third one month ([2]; IBA 3.0 mg/l): 73.1%
Rooting rate (%) For first one month ([2]; IBA 4.0 mg/l): 0.0%
Rooting rate (%) For second one month ([2]; IBA 4.0 mg/l): 4.0%
Rooting rate (%) For third one month ([2]; IBA 4.0 mg/l): 4.0%
Withering rate (%) For first one month ([2]; IBA 4.0 mg/l): 40.0%
Withering rate (%) For second one month ([2]; IBA 4.0 mg/l): 72.0%
Withering rate (%) For third one month ([2]; IBA 4.0 mg/l): 100.0%
Rooting rate (%) For first one month ([2]; IBA 5.0 mg/l): 0.0%
Rooting rate (%) For second one month ([2]; IBA 5.0 mg/l): 0.0%
Rooting rate (%) For third one month ([2]; IBA 5.0 mg/l): 0.0%
Withering rate (%) For first one month ([2]; IBA 5.0 mg/l): 53.8%
Withering rate (%) For second one month ([2]; IBA 5.0 mg/l): 84.6%
Withering rate (%) For third one month ([2]; IBA 5.0 mg/l): 100.0%
Rooting rate (%) For first one month ([2]; IBA 10.0 mg/l): 0.0%
Rooting rate (%) For second one month ([2]; IBA 10.0 mg/l): 0.0%
Rooting rate (%) For third one month ([2]; IBA 10.0 mg/l): 0.0%
Withering rate (%) For first one month ([2]; IBA 10.0 mg/l): 80.8%
Withering rate (%) For second one month ([2]; IBA 10.0 mg/l): 96.2%
Withering rate (%) For third one month ([2]; IBA 10.0 mg/l): 100.0%
